Test system: KMS-12BM MM xenografts
Test: In vivo antitumor efficacy against KMS-12BM MM xenografts
Parameters: species or system CIEA NOG mice
Conditions: D14-25; for Antitumor efficacy (result in words): KMS-12BM xenografts, RG6146 30 mg/kg ip, venetoclax 100 mg/kg po, single agent or combination; for Tumor Regression (%) / npTCR and CI (non-parametric Treatment to Control Ratio) / TGI % (tumor growth inhibition): s.c. KMS-12BM human MM xenografts in female CIEA NOG mice, RG6146 30 mg/kg ip QD, venetoclax 100 mg/kg po QD, Day 25; for TGI % (tumor growth inhibition): compared to control
Procedure: The in vivo antitumor efficacy of BET inhibitor RG6146 in combination with Bcl-2 inhibitor venetoclax (GDC-0199) was evaluated against KMS-12BM MM xenografts.
BET inhibitor RG6146 was provided as a powder from Roche, Basel, Switzerland and resuspended prior to use. Bcl-2 inhibitor venetoclax was provided by Genentech, South San Francisco, USA and formulated prior to use.
The original KMS-12BM human Multiple Myeloma cell line (MM) was purchased from ATCC (Manassas, V., USA). Expansion of tumor cells for the transplantation was done by the TAP CompacT CellBase Cell Culture Roboter according to the protocol. Tumor cell line was routinely cultured in RPMI 1640 medium, FCS 10% and L-Glutamin 2 mM at 37° C. in a water-saturated atmosphere at 5% CO2. Culture passage was performed with trypsin/EDTA 1× splitting twice/week and passage 3 used for transplantation.
Female CIEA NOG mice (Taconic), age 5-7 weeks at arrival, maintained under specific-pathogen-free condition with daily cycles of 12 h light/12 h darkness according to committed guidelines. Experimental study protocol was reviewed and approved by local government. After arrival animals were maintained in animal facility for one week to get accustomed to new environment and for observation. Continuous health monitoring was carried out on regular basis. Diet food and autoclaved water were provided ad libitum.
Animals were controlled daily for clinical symptoms and detection of adverse effects. For monitoring throughout the experiment body weight of animals was documented.
Animal treatment started after randomisation when median tumor size was about 170 mm^3. The vehicle was administered ip once daily (QD) on D14-25. BET inhibitor RG6146 ip treatment at 30 mg/kg was done as single agent and in combination on D14-25. Finally, Bcl-2 inhibitor venetoclax was given orally at 100 mg/kg as single agent and in combination on D14-25.
KMS-12BM human MM cells were s.c. inoculated with Matrigel onto female CIEA-NOG mice. Tumor bearing mice were randomized 14 days later to the indicated study groups and compound treatment initiated. Tumor bearing animals were treated with vehicle control, with the BET inhibitor RG6146 at 30 mg/kg or with Bcl-2 inhibitor venetoclax at 100 mg/kg as single agent and in combination thereof.

Compound | Antitumor efficacy (result in words) | Tumor Regression (%) | npTCR and CI (non-parametric Treatment to Control Ratio) | TGI % (tumor growth inhibition)
CC1(C)CCC(CN2CCN(c3ccc(C(=O)NS(=O)(=O)c4ccc(NCC5CCOCC5)c([N+](=O)[O-])c4)c(Oc4cnc5[nH]ccc5c4)c3)CC2)=C(c2ccc(Cl)cc2)C1 [venetoclax, 4-(4-{[2-(4-chlorophenyl)-4,4-dimethylcyclohex-1-en-1-yl]methyl}piprazin-1-yl)-N-({3-nitro-4-[(tetrahydro-2H-pyran-4-ylmethyl)amino]phenyl}sulfonyl)-2-(1H-pyrrolo[2,3-b]pyridin-5-yloxy)benzamide] | weaker activity | 0% | 0.55 | 49%
Cc1sc2c(c1C)C(c1ccc(Cl)cc1)=N[C@@H](CC(=O)NCCCN1CCN(C)CC1)c1nnc(C)n1-2 [RG6146, 2-[(S)-4-(4-Chloro-phenyl)-2,3,9-trimethyl-6H-1-thia-5,7,8,9a-tetraaza-cyclopenta[e]azulen-6-yl]-N-[3-(4-methyl-piperazin-1-yl)-propyl]-acetamide] | nearly tumor stasis | 0% | 0.06 | 94%

From patent US20200237779A1, “COMBINATION THERAPY WITH A BET INHIBITOR AND A BCL-2 INHIBITOR” (Hoffmann-La Roche Inc., priority 2017, published 2020)
